Earlier results on four compounds are cited in US20080032954A1, “Vascular Damaging Agents for Administration as an Intravenous Infusion” (priority 2004, published 2008).

The conditions of data set [1]: patients, 30 minute intravenous infusion once weekly.
The subject of data set [2] is proliferating endothelial cells.
In the next data set the test system is tumour. As to conditions: nude rats.
The conditions of data set [3]: phase I study, patients with advanced cancer.
For data set [4] the following is noted: patients, intravenous infusion at three-week intervals.
Setting [5] is: 20 mg/kg as 24-hour subcutaneous infusion versus 5 to 10 second IV bolus.

In the case of `COc1ccc(/C=C\c2cc(OC)c(OC)c(OC)c2)cc1NC(=O)[C@@H](N)CO` [AVE8062A], the hypotension result in data set [1] is on record as “instances of asymptomatic hypotension”.
Consider `COc1cc2c(c(OC)c1OC)-c1ccc(OP(=O)(O)O)cc1[C@@H](NC(C)=O)CC2` [ZD6126, (5S)-5-(acetylamino)-9,10,11-trimethoxy-6,7-dihydro-5H-dibenzo[a,c]cyclohepten-3-yl dihydrogen phosphate], for which the “ischemic changes on ECG” value (one of the two patients with troponin I elevation, 10 minute IV infusion once every three weeks) is on record as “reversible grade 2 ischemic changes on ECG”. Where the note is “patients, 10 minute intravenous infusion once every three weeks”, the “elevation in troponin I” value is reported as “two patients exhibited grade 3 transient asymptomatic elevation in troponin I”. The blood pressure change result (the other patient with troponin I elevation, 10 minute IV infusion once every three weeks) was “increase in blood pressure one hour after dosing”. For the same compound, the “effect on tubulin cytoskeleton and cell shape” value in data set [2] is recorded as “disrupts the tubulin cytoskeleton causing rounding up and/or detachment of proliferating endothelial cells”. Also, in the data set with tumour (setting [5]), the “toxicity compared to single intravenous bolus” value was “significant increases in toxicity” and the “tumour necrosis compared to single intravenous bolus” value is given as “no increase in tumour necrosis”. Further, the tolerability entry with tumour (50 mg/kg as 24-hour subcutaneous infusion, in contrast to bolus of the same dose) was “not tolerated”.
For the compound `COc1ccc(/C=C\c2cc(OC)c(OC)c(OC)c2)cc1OP(=O)(O)O` [combretastatin A4 phosphate], the “hemodynamic and cardiac toxic events” value in data set [3] was “numerous hemodynamic and cardiac toxic events were observed”.
For `COc1ccc(/C=C\c2cc(OC)c(OC)c(OC)c2)cc1O` [combretastatin A4], the “toxicity profile, 10-minute versus 60-minute infusion” value in data set [4] is recorded as “no difference in the toxicity profile”.
